Measured values from patent US9394268B2, “(E)-1-(5-methoxy-2,2-dimethyl-2H-chromen-8-yl)-3-(4-methoxyphenyl)prop-2-en-1-one and analogs thereof, as well as preparation method and use thereof” (Sichuan University, priority 2012, dated 2016).

Columns and labels:
Format in all cases: cell-based
HepG2 = experiment: Cell proliferative assay (MTT), HepG2; conditions: Homo sapiens, 72 h incubation, read-out: IC50s HepG2
Description: (§1) The synthesized compounds were evaluated for their cytotoxin activity against suspended tumor cells. These cells were seeded on 96-well plates and incubated for 24 h. Selected compounds were added at various doses and incubated for 72 h, MTT was then added, and the absorbance was measured at a wavelength of 590 nm. IC50 values are expressed as the mean±SEM from the dose-response curves of at least three independent experiments.

SW620 = experiment: Cell proliferative assay (MTT), SW620; conditions: Homo sapiens, SW-620, 72 h incubation, read-out: IC50s SW620
Description: as §1

HT29 = experiment: Cell proliferative assay (MTT), HT29; conditions: Homo sapiens, HT-29, 72 h incubation, read-out: IC50s HT29
Description: as §1

K562 = experiment: Cell proliferative assay (MTT), K562; conditions: Homo sapiens, 72 h incubation, read-out: IC50s K562
Description: as §1

HCT116 = experiment: Cell proliferative assay (MTT), HCT116; conditions: Homo sapiens, HCT-116, 72 h incubation, read-out: IC50s HCT116
Description: as §1

A549 = experiment: Cell proliferative assay (MTT), A549; conditions: Homo sapiens, 72 h incubation, read-out: IC50s A549
Description: as §1

A375 = experiment: Cell proliferative assay (MTT), A375; conditions: Homo sapiens, A-375, 72 h incubation, read-out: IC50s A375
Description: as §1

SMMC-7221 = experiment: Cell proliferative assay (MTT), SMMC-7221; conditions: 72 h incubation, read-out: IC50s SMMC-7221
Description: as §1

LO2 = experiment: Cell proliferative assay (MTT), LO2; conditions: Homo sapiens, L02, 72 h incubation, read-out: IC50s LO2
Description: as §1

IC50 (HepG2) [µM] | IC50 (SW620) [µM] | IC50 (HT29) [µM] | IC50 (K562) [µM] | IC50 (HCT116) [µM] | IC50 (A549) [µM] | IC50 (A375) [µM] | IC50 (SMMC-7221) [µM] | SMILES | IC50 (LO2) [µM]
> 10 | > 10 | > 10 | > 10 | > 10 | – | – | – | COc1cccc(/C=C/C(=O)c2ccc(OC)c3c2OC(C)(C)C=C3)c1 [SKLBC-2, (E)-1-(5-methoxy-2,2-dimethyl-2H-chromen-8-yl)-3-(3-methoxyphenyl)prop-2-en-1-one] | –
> 10 | 9.15 | > 10 | > 10 | 7.65 | – | – | – | COc1ccc(C(=O)/C=C/c2cc(OC)c(OC)c(OC)c2)c2c1C=CC(C)(C)O2 [SKLBC-3, (E)-1-(5-methoxy-2,2-dimethyl-2H-chromen-8-yl)-3-(3,4,5-trimethoxyphenyl)prop-2-en-1-one] | –
> 10 | > 10 | > 10 | > 10 | > 10 | – | – | – | COc1cc(OC)c(OC)cc1/C=C/C(=O)c1ccc(OC)c2c1OC(C)(C)C=C2 [SKLBC-5, (E)-1-(5-methoxy-2,2-dimethyl-2H-chromen-8-yl)-3-(2,4,5-trimethoxyphenyl)prop-2-en-1-one] | –
> 10 | > 10 | > 10 | > 10 | > 10 | – | – | – | COc1ccc(C(=O)/C=C/c2ccc(F)cc2)c2c1C=CC(C)(C)O2 [SKLBC-6, (E)-3-(4-fluorophenyl)-1-(5-methoxy-2,2-dimethyl-2H-chromen-8-yl)prop-2-en-1-one] | –
> 10 | > 10 | > 10 | > 10 | 1.92 | – | – | – | COc1ccc(C(=O)/C=C/c2cccc(F)c2)c2c1C=CC(C)(C)O2 [SKLBC-7, (E)-3-(3-fluorophenyl)-1-(5-methoxy-2,2-dimethyl-2H-chromen-8-yl)prop-2-en-1-one] | –
> 10 | > 10 | > 10 | > 10 | 5.82 | – | – | – | COc1ccc(C(=O)/C=C/c2ccc(Br)cc2)c2c1C=CC(C)(C)O2 [SKLBC-8, (E)-3-(4-bromophenyl)-1-(5-methoxy-2,2-dimethyl-2H-chromen-8-yl)prop-2-en-1-one] | –
> 10 | > 10 | > 10 | > 10 | > 10 | – | – | – | COc1ccc(C(=O)/C=C/c2ccc(-c3ccccc3)cc2)c2c1C=CC(C)(C)O2 [SKLBC-11, (E)-3-([1,1′-biphenyl]-4-yl)-1-(5-methoxy-2,2-dimethyl-2H-chromen-8-yl)prop-2-en-1-one] | –
> 10 | > 10 | > 10 | > 10 | 4.53 | – | – | – | COc1ccc(C(=O)/C=C/c2ccc(N(c3ccccc3)c3ccccc3)cc2)c2c1C=CC(C)(C)O2 [SKLBC-13, (E)-3-(4-(diphenylamino)phenyl)-1-(5-methoxy-2,2-dimethyl-2H-chromen-8-yl)prop-2-en-1-one] | –
> 10 | > 10 | 6.6 | > 10 | 8.05 | – | – | – | COc1ccc(C(=O)/C=C/c2ccc(-n3ccnc3)cc2)c2c1C=CC(C)(C)O2 [SKLBC-15, (E)-3-(4-(1H-imidazol-1-yl)phenyl)-1-(5-methoxy-2,2-dimethyl-2H-chromen-8-yl)prop-2-en-1-one] | –
> 10 | > 10 | > 10 | > 10 | > 10 | – | – | – | COc1ccc(C(=O)/C=C/c2ccc(C(F)(F)F)cc2)c2c1C=CC(C)(C)O2 [SKLBC-19, (E)-1-(5-methoxy-2,2-dimethyl-2H-chromen-8-yl)-3-(4-(trifluoromethyl)phenyl)prop-2-en-1-one] | –
> 10 | > 10 | > 10 | > 10 | > 10 | – | – | – | COc1ccc(C(=O)/C=C/c2ccccc2)c2c1C=CC(C)(C)O2 [SKLBC-20, (E)-1-(5-methoxy-2,2-dimethyl-2H-chromen-8-yl)-3-phenylprop-2-en-1-one] | –
> 10 | > 10 | > 10 | > 10 | > 10 | – | – | – | COc1ccc(/C=C/C(=O)c2ccc(OC)c3c2OC(C)(C)C=C3)cn1 [SKLBC-21, (E)-1-(5-methoxy-2,2-dimethyl-2H-chromen-8-yl)-3-(6-methoxypyridin-3-yl)prop-2-en-1-one] | –
> 10 | > 10 | > 10 | > 10 | > 10 | – | – | – | COc1ccc(C(=O)/C=C/c2ccc(O)cc2)c2c1C=CC(C)(C)O2 [SKLBC-22, (E)-3-(4-hydroxyphenyl)-1-(5-methoxy-2,2-dimethyl-2H-chromen-8-yl)prop-2-en-1-one] | –
> 10 | > 10 | > 10 | > 10 | > 10 | – | – | – | COc1ccc(C(=O)/C=C/c2cccc(O)c2)c2c1C=CC(C)(C)O2 [SKLBC-23, (E)-3-(3-hydroxyphenyl)-1-(5-methoxy-2,2-dimethyl-2H-chromen-8-yl)prop-2-en-1-one] | –
> 10 | > 10 | > 10 | > 10 | > 10 | – | – | – | COc1ccc(C(=O)/C=C/c2ccc(OC)c(OC)c2OC)c2c1C=CC(C)(C)O2 [SKLBC-24, (E)-1-(5-methoxy-2,2-dimethyl-2H-chromen-8-yl)-3-(2,3,4-trimethoxyphenyl)prop-2-en-1-one] | –
> 10 | > 10 | > 10 | > 10 | 9.71 | – | – | – | COc1ccc(C(=O)/C=C/c2cccc(C(F)(F)F)c2)c2c1C=CC(C)(C)O2 [SKLBC-25, (E)-1-(5-methoxy-2,2-dimethyl-2H-chromen-8-yl)-3-(3-(trifluoromethyl)phenyl)prop-2-en-1-one] | –
> 10 | > 10 | > 10 | > 10 | > 10 | – | – | – | CCOc1cc(/C=C/C(=O)c2ccc(OC)c3c2OC(C)(C)C=C3)ccc1O [SKLBC-26, (E)-3-(3-ethoxy-4-hydroxyphenyl)-1-(5-methoxy-2,2-dimethyl-2H-chromen-8-yl)prop-2-en-1-one] | –
> 10 | > 10 | > 10 | > 10 | > 10 | – | – | – | COc1ccc(C(=O)/C=C/c2ccsc2)c2c1C=CC(C)(C)O2 [SKLBC-27, (E)-1-(5-methoxy-2,2-dimethyl-2H-chromen-8-yl)-3-(thiophen-3-yl)prop-2-en-1-one] | –
> 10 | – | – | > 10 | – | > 10 | > 10 | 6.8 | COc1ccc(/C=C/C(=O)c2ccc(OC)c3c2OC(C)(C)C=C3)cc1NS(=O)(=O)c1ccc(C)cc1 [SKLBC-101, (E)-N-(2-methoxy-5-(3-(5-methoxy-2,2-dimethyl-2H-chromen-8-yl)-3-oxoprop-1-en-1-yl)phenyl)-4-methylbenzenesulfonamide] | > 10
> 10 | – | – | > 10 | – | > 10 | > 10 | > 10 | COc1ccc(/C=C/C(=O)c2ccc(OC)c3c2OC(C)(C)C=C3)cc1NS(=O)(=O)Cc1ccccc1 [SKLBC-102, (E)-N-(2-methoxy-5-(3-(5-methoxy-2,2-dimethyl-2H-chromen-8-yl)-3-oxoprop-1-en-1-yl)phenyl)-1-phenylmethanesulfonamide] | > 20
